Measurements taken from paper PMC4506051, “Pharmacokinetic Profiles of Active Ingredients and Its Metabolites Derived from Rikkunshito, a Ghrelin Enhancer, in Healthy Japanese Volunteers: A Cross-Over, Randomized Study” (PLoS ONE, 2015).

Key:
[1] = 7.5 g dosage; cited from earlier work
[2] = Randomized crossover quantitative trial: plasma pharmacokinetics of nine ingredients after rikkunshito 2.5, 5.0 or 7.5 g; settings: for AUC(0-t): AUC0-last; for Cmax: C max
Outline: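 Plasma concentrations of ingredients were measured by LC–MS/MS or GC–MS in samples taken from pre-dose to 48 h. Dosing was a single oral rikkunshito dose (2.5, 5.0 or 7.5 g; three-arm randomized crossover) in fasted healthy Japanese volunteers aged 20–45.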

[3] = Method validation: stability in blood
[4] = Method validation: long-term stability in plasma
[5] = Method validation: freeze-thaw stability in plasma; settings: −30°C to −10°C, 3 cycles
[6] = Stability of ingredients in gastric pH solution (pH 1.2, 37°C); format: physicochemical; settings: rikkunshito in acidic solution (pH 1.2) at 37°C
Method: Rikkunshito gradually dissolved in acidic solution (pH 1.2) at 37°C, and the concentration of atractylodin after adding 0.25, 0.5, 1, and 2 h was measured by gas chromatography–mass spectrometry.

[7] = Method validation: post-preparative stability (autosampler); settings: autosampler set at 4°C
[8] = Method validation: stability in standard, stock and working solution; settings: for Stock solution stability, RR: 0.1 mg/mL (naringenin 0.5 mg/mL)
[9] = Dose proportionality (linearity) test by power model for C max and AUC0-last; settings: for Dose proportionality test using power model, Inference: linear when 90% CI of β included 1, CIlower ≥0.8, and CIupper ≤1.25; for Dose proportionality test using power model, β: rikkunshito 2.5, 5.0 or 7.5 g
Method: The dose proportionality was analyzed via a power model [21, 22]. […] Evaluation of linearity of the dosage-exposure relationship was conducted with Phoenix WinNonlin and SAS 9.2 (SAS Institute, Inc., Cary, NC).

[10] = Method validation: short-term stability in plasma
[11] = human, in vivo, po, rikkunshito 2.5 g single oral, n = 21, geometric mean (95% CI)
[12] = human, in vivo, po, rikkunshito 5.0 g single oral, n = 19, geometric mean (95% CI)
[13] = human, in vivo, po, rikkunshito 7.5 g single oral, n = 19, geometric mean (95% CI)

In the case of `C=C(CC[C@@H](C(=O)O)[C@H]1[C@H](O)C[C@@]2(C)C3=C(CC[C@]12C)[C@@]1(C)CC[C@H](OC(C)=O)C(C)(C)[C@@H]1CC3)C(C)C` [Pachymic acid], the “Maximum plasma concentration in the preliminary pharmacokinetics study” value [1] is given as 0.228 ± 0.116 ng/mL, the “Plasma concentration just before the administration” value ([2]; all subjects, quantitative trial) is given as “BQL” and the AUC(0-t) [2, 11] is given as 0.277 ng·h/mL. The AUC(0-t) [2, 12] was 0.716 ng·h/mL, the AUC(0-t) [2, 13] was 1.21 ng·h/mL and the Cmax [2, 11] was 0.0363 ng/mL. It also gave a Cmax [2, 12] of 0.0612 ng/mL, a Cmax [2, 13] of 0.091 ng/mL and a Tmax ([2]; human, in vivo, po, Median t max (range), rikkunshito 2.5 g single oral, n = 21, median (minimum–maximum)) of 6 h. The Tmax ([2]; human, in vivo, po, Median t max (range), rikkunshito 5.0 g single oral, n = 19, median (minimum–maximum)) was 6 h, the Tmax ([2]; human, in vivo, po, Median t max (range), rikkunshito 7.5 g single oral, n = 19, median (minimum–maximum)) was > 3 h and the half-life ([2]; human, in vivo, po, t 1/2, rikkunshito 5.0 g single oral, n = 19, geometric mean (95% CI)) was 16.2 h. The Tmax ([2]; human, in vivo, t max, after rikkunshito administration, dose not given) was 6 h, the “t 1/2” value ([2]; rikkunshito 7.5 g single oral, n = 19, geometric mean (95% CI)) was 20.5 (14.4–29.2) h and the “t 1/2” value ([2]; rikkunshito 7.5 g single oral, n = 19, geometric mean (95% CI), listed as pachymic acid) was “exceeding 10 h”. For the same compound, the “Median t max (range)” value ([2]; rikkunshito 7.5 g single oral, n = 19, median (minimum–maximum)) was 6.00 (2.00–11.5) h, the “Stability in blood, RR” value ([3]; on ice 2 h, higher concentration (800 / 320 / 4000 pg/mL)) was 93.4% and the “Stability in blood, RR” value ([3]; on ice 2 h, lower concentration (20 / 8 / 100 pg/mL)) was 103.1%. For the same compound, the “Stability in blood, RR” value ([3]; room temperature 2 h, higher concentration (pachymic acid 800, heptamethoxyflavone 320, naringenin 4000 pg/mL)) was 91.8%, the “Stability in blood, RR” value ([3]; room temperature 2 h, lower concentration (pachymic acid 20, heptamethoxyflavone 8, naringenin 100 pg/mL)) was 103.1% and the “Long-term stability, RR” value ([4]; freezer −30°C to −10°C, 13 days, lower concentration (pachymic acid 20, heptamethoxyflavone 8 pg/mL)) was 110.9%. For the same compound, the “Long-term stability, RR” value ([4]; freezer, 13 days, higher concentration (pachymic acid 800, heptamethoxyflavone 320 pg/mL)) was 113.9%, the “Long-term stability, RR” value ([4]; freezer, 39 days, higher concentration (800 / 320 pg/mL)) was 107.6% and the “Long-term stability, RR” value ([4]; freezer, 39 days, lower concentration (20 / 8 pg/mL)) was 104.1%. For the same compound, the “Long-term stability, RR” value ([4]; freezer, 228 days, higher concentration (800 / 320 pg/mL)) was 92.5%, the “Long-term stability, RR” value ([4]; freezer, 228 days, lower concentration (20 / 8 pg/mL)) was 89.6% and the “Freeze-thaw stability, RR” value ([5]; higher concentration (800 / 320 / 4000 pg/mL)) was 114.0%. The “Freeze-thaw stability, RR” value ([5]; lower concentration (20 / 8 / 100 pg/mL)) was 108.8%, the “Stability in gastric pH solution, Quantitative value” (from here on “Stability in gastric pH solution”) ([6]; 0.5 h) was 40.2 ng/mL and the “Stability in gastric pH solution” value ([6]; 1 h) was 46.5 ng/mL. The “Stability in gastric pH solution” value ([6]; 2 h) was 28.3 ng/mL, the “Post-preparative stability, RR” value ([7]; 24 h, higher concentration (pachymic acid 800, heptamethoxyflavone 320 pg/mL)) was 88.4% and the “Post-preparative stability, RR” value ([7]; 24 h, lower concentration (pachymic acid 20, heptamethoxyflavone 8 pg/mL)) was 92.4%. For the same compound, the “Post-preparative stability, RR” value ([7]; 48 h, higher concentration (800 / 320 / 4000 pg/mL)) was 98.2%, the “Post-preparative stability, RR” value ([7]; 48 h, lower concentration (20 / 8 / 100 pg/mL)) was 93.8% and the “Working solution stability, RR” value ([8]; refrigerator 53 days, higher concentration (pachymic acid 10, heptamethoxyflavone 4, naringenin 50 ng/mL)) was 101.1%. For the same compound, the “Working solution stability, RR” value ([8]; refrigerator 53 days, lower concentration (pachymic acid 0.1, heptamethoxyflavone 0.04, naringenin 0.5 ng/mL)) was 109.1%, the “Working solution stability, RR” value ([8]; refrigerator 128 days, higher concentration (10 / 4 / 50 ng/mL)) was 113.2% and the “Working solution stability, RR” value ([8]; refrigerator 128 days, lower concentration (0.1 / 0.04 / 0.5 ng/mL)) was 102.1%. For the same compound, the “Stock solution stability, RR” value ([8]; refrigerator (1°C to 8°C) 54 days) was 54 days: 101.7%, the “Stock solution stability, RR” value ([8]; refrigerator (1°C to 8°C) 129 days) was 129 days: 110.1% and the “Dose proportionality test using power model, Inference” value ([9]; AUC0-last) was “Nonlinear”. For the same compound, the “Dose proportionality test using power model, β” value ([9]; AUC0-last) was 1.39, the “Dose proportionality test using power model, Inference” value ([9]; Cmax) was “Nonlinear” and the “Dose proportionality test using power model, β” value ([9]; Cmax) was 0.856. For the same compound, the “Short-term stability, RR” value ([10]; room temperature 25 h, higher concentration (pachymic acid 800, heptamethoxyflavone 320 pg/mL)) was 93.8%, the “Short-term stability, RR” value ([10]; room temperature 25 h, lower concentration (pachymic acid 20, heptamethoxyflavone 8 pg/mL)) was 85.9% and the “Short-term stability, RR” value ([10]; room temperature (1°C to 30°C) 4 h, higher concentration (800 / 320 / 4000 pg/mL)) was 95.1%. The “Short-term stability, RR” value ([10]; room temperature (1°C to 30°C) 4 h, lower concentration (20 / 8 / 100 pg/mL)) was 95.8%.
